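Following 48 hours of exposure in 96-well plates, responses at five concentrations were used to interpolate endpoints linearly. The concentration for full growth arrest is given as TGI.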
Experiments:
Experiment in all cases: DTP human tumour cell line panel, 48 h
786-0 renal = tested on: 786-0 renal
A498 renal = tested on: A498 renal
A549 NSCLC = tested on: A549 NSCLC
ACHN renal = tested on: ACHN renal
CAKI-1 renal = tested on: CAKI-1 renal
CCRF-CEM leukemia = tested on: CCRF-CEM leukemia
COLO 205 colon = tested on: COLO 205 colon
DLD-1 colon = tested on: DLD-1 colon
DMS 273 small cell lung = tested on: DMS 273 small cell lung
EKVX NSCLC = tested on: EKVX NSCLC
HCC-2998 colon = tested on: HCC-2998 colon
HCT-116 colon = tested on: HCT-116 colon
HCT-15 colon = tested on: HCT-15 colon
HL-60(TB) leukemia = tested on: HL-60(TB) leukemia
HOP-18 NSCLC = tested on: HOP-18 NSCLC
HOP-62 NSCLC = tested on: HOP-62 NSCLC
HOP-92 NSCLC = tested on: HOP-92 NSCLC
HT29 colon = tested on: HT29 colon
IGROV1 ovarian = tested on: IGROV1 ovarian
K-562 leukemia = tested on: K-562 leukemia
KM12 colon = tested on: KM12 colon
KM20L2 colon = tested on: KM20L2 colon
LOX IMVI melanoma = tested on: LOX IMVI melanoma
LXFL 529 NSCLC = tested on: LXFL 529 NSCLC
M14 melanoma = tested on: M14 melanoma
M19-MEL melanoma = tested on: M19-MEL melanoma
MALME-3M melanoma = tested on: MALME-3M melanoma
MOLT-4 leukemia = tested on: MOLT-4 leukemia
NCI-H23 lung = tested on: NCI-H23 lung
NCI-H460 lung = tested on: NCI-H460 lung
NCI-H522 lung = tested on: NCI-H522 lung
OVCAR-3 ovarian = tested on: OVCAR-3 ovarian
OVCAR-4 ovarian = tested on: OVCAR-4 ovarian
OVCAR-5 ovarian = tested on: OVCAR-5 ovarian
OVCAR-8 ovarian = tested on: OVCAR-8 ovarian
RPMI-8226 leukemia = tested on: RPMI-8226 leukemia
RXF 393 renal = tested on: RXF 393 renal
RXF-631 renal = tested on: RXF-631 renal
SF-268 CNS = tested on: SF-268 CNS
SF-295 CNS = tested on: SF-295 CNS
SF-539 CNS = tested on: SF-539 CNS
SK-MEL-2 melanoma = tested on: SK-MEL-2 melanoma
SK-MEL-28 melanoma = tested on: SK-MEL-28 melanoma
SK-MEL-5 melanoma = tested on: SK-MEL-5 melanoma
SK-OV-3 ovarian = tested on: SK-OV-3 ovarian
SN12C renal = tested on: SN12C renal
SNB-19 CNS = tested on: SNB-19 CNS
SNB-75 CNS = tested on: SNB-75 CNS
SNB-78 CNS = tested on: SNB-78 CNS
SR leukemia = tested on: SR leukemia
SW-620 colon = tested on: SW-620 colon
TK-10 renal = tested on: TK-10 renal
U251 CNS = tested on: U251 CNS
UACC-257 melanoma = tested on: UACC-257 melanoma
UACC-62 melanoma = tested on: UACC-62 melanoma
UO-31 renal = tested on: UO-31 renal
XF 498 CNS = tested on: XF 498 CNS
NCI-H226 lung = tested on: NCI-H226 lung

## CCCCCCCCCCCCCCCCc1c(C(=O)OC)[nH]c(=S)[nH]c1=O
786-0 renal
  TGI: > 50 µM
A498 renal
  TGI: > 50 µM
A549 NSCLC
  TGI: > 50 µM
ACHN renal
  TGI: > 50 µM
CAKI-1 renal
  TGI: > 50 µM
CCRF-CEM leukemia
  TGI: > 50 µM
COLO 205 colon
  TGI: > 50 µM
DLD-1 colon
  TGI: > 50 µM
DMS 273 small cell lung
  TGI: > 50 µM
EKVX NSCLC
  TGI: > 50 µM
HCC-2998 colon
  TGI: > 50 µM
HCT-116 colon
  TGI: > 50 µM
HCT-15 colon
  TGI: > 50 µM
HL-60(TB) leukemia
  TGI: > 50 µM
HOP-18 NSCLC
  TGI: > 50 µM
HOP-62 NSCLC
  TGI: > 50 µM
HOP-92 NSCLC
  TGI: 41 µM
HT29 colon
  TGI: > 50 µM
IGROV1 ovarian
  TGI: > 50 µM
K-562 leukemia
  TGI: > 50 µM
KM12 colon
  TGI: > 50 µM
KM20L2 colon
  TGI: > 50 µM
LOX IMVI melanoma
  TGI: > 50 µM
LXFL 529 NSCLC
  TGI: > 50 µM
M14 melanoma
  TGI: > 50 µM
M19-MEL melanoma
  TGI: > 50 µM
MALME-3M melanoma
  TGI: > 50 µM
MOLT-4 leukemia
  TGI: > 50 µM
NCI-H23 lung
  TGI: > 50 µM
NCI-H460 lung
  TGI: > 50 µM
NCI-H522 lung
  TGI: > 50 µM
OVCAR-3 ovarian
  TGI: > 50 µM
OVCAR-4 ovarian
  TGI: > 50 µM
OVCAR-5 ovarian
  TGI: > 50 µM
OVCAR-8 ovarian
  TGI: > 50 µM
RPMI-8226 leukemia
  TGI: > 50 µM
RXF 393 renal
  TGI: > 50 µM
RXF-631 renal
  TGI: > 50 µM
SF-268 CNS
  TGI: > 50 µM
SF-295 CNS
  TGI: > 50 µM
SF-539 CNS
  TGI: > 50 µM
SK-MEL-2 melanoma
  TGI: > 50 µM
SK-MEL-28 melanoma
  TGI: > 50 µM
SK-MEL-5 melanoma
  TGI: > 50 µM
SK-OV-3 ovarian
  TGI: > 50 µM
SN12C renal
  TGI: > 50 µM
SNB-19 CNS
  TGI: > 50 µM
SNB-75 CNS
  TGI: > 50 µM
SNB-78 CNS
  TGI: > 50 µM
SR leukemia
  TGI: 32 µM
SW-620 colon
  TGI: > 50 µM
TK-10 renal
  TGI: > 50 µM
U251 CNS
  TGI: > 50 µM
UACC-257 melanoma
  TGI: > 50 µM
UACC-62 melanoma
  TGI: > 50 µM
UO-31 renal
  TGI: > 50 µM
XF 498 CNS
  TGI: > 50 µM

## O=S1Cc2ccccc2CS1 (configuration not stated)
786-0 renal
  TGI: 29.2 µM
A498 renal
  TGI: > 100 µM
A549 NSCLC
  TGI: > 100 µM
ACHN renal
  TGI: > 100 µM
CAKI-1 renal
  TGI: 31.1 µM
COLO 205 colon
  TGI: 28.8 µM
DLD-1 colon
  TGI: 33.5 µM
DMS 273 small cell lung
  TGI: 29.8 µM
EKVX NSCLC
  TGI: 44.9 µM
HCC-2998 colon
  TGI: 93.2 µM
HCT-116 colon
  TGI: 57.2 µM
HCT-15 colon
  TGI: > 100 µM
HL-60(TB) leukemia
  TGI: 40.9 µM
HOP-18 NSCLC
  TGI: > 100 µM
HOP-92 NSCLC
  TGI: 34.1 µM
HT29 colon
  TGI: 30.1 µM
IGROV1 ovarian
  TGI: > 100 µM
K-562 leukemia
  TGI: 49.9 µM
KM12 colon
  TGI: > 100 µM
KM20L2 colon
  TGI: > 100 µM
LOX IMVI melanoma
  TGI: 21.3 µM
LXFL 529 NSCLC
  TGI: 28.7 µM
M14 melanoma
  TGI: 28.3 µM
M19-MEL melanoma
  TGI: 33.7 µM
MALME-3M melanoma
  TGI: 26.4 µM
MOLT-4 leukemia
  TGI: 56 µM
NCI-H226 lung
  TGI: > 100 µM
NCI-H23 lung
  TGI: 28.3 µM
NCI-H460 lung
  TGI: 64.6 µM
NCI-H522 lung
  TGI: 19.7 µM
OVCAR-3 ovarian
  TGI: 29 µM
OVCAR-4 ovarian
  TGI: 30.6 µM
OVCAR-5 ovarian
  TGI: 56.9 µM
OVCAR-8 ovarian
  TGI: 28.7 µM
RPMI-8226 leukemia
  TGI: 38.2 µM
RXF 393 renal
  TGI: 29.5 µM
RXF-631 renal
  TGI: > 100 µM
SF-268 CNS
  TGI: > 100 µM
SF-295 CNS
  TGI: > 100 µM
SF-539 CNS
  TGI: 24.5 µM
SK-MEL-28 melanoma
  TGI: 28.3 µM
SK-MEL-5 melanoma
  TGI: > 100 µM
SK-OV-3 ovarian
  TGI: > 100 µM
SN12C renal
  TGI: 28.3 µM
SNB-19 CNS
  TGI: > 100 µM
SNB-75 CNS
  TGI: 61.5 µM
SNB-78 CNS
  TGI: 36.7 µM
SR leukemia
  TGI: 64.4 µM
SW-620 colon
  TGI: 27.1 µM
TK-10 renal
  TGI: 55.6 µM
U251 CNS
  TGI: 24.5 µM
UACC-257 melanoma
  TGI: 32 µM
UACC-62 melanoma
  TGI: 28.9 µM
UO-31 renal
  TGI: 56.4 µM
XF 498 CNS
  TGI: 32.6 µM
